The text below walks through data of US7501530B2, “Trifluoromethyl-thiophene carboxylic acid aniledes and use thereof as fungicides” (BASF Aktiengesellschaft, priority 2003, dated 2009).

One data set deals with Sphaerotheca fuliginea. Nature of the data set: Protective activity against mildew of cucumber (Use Example 3). In kind it is in vivo. The note with it: 63 ppm spray; cucumber seedlings, cotyledon area; inoculated 20 hours after spray coating dried; assessed after 7 days; untreated 90%. As to the method: Protective Activity Against Mildew of Cucumber Caused by Sphaerotheca fuliginea Leaves of potted cucumber seedlings of the cultivar “Chinese Snake”, in the cotyledon stage, were sprayed to runoff point with an aqueous suspension having the concentration stated below of active compounds. The suspension or emulsion was prepared from a stock solution containing 10% of active compound in a mixture comprising 85% of cyclohexanone and 5% of emulsifier. 20 hours after the spray coating had dried on, the plants were inoculated with an aqueous spore suspension of mildew of cucumber (Sphaerotheca fuliginea). The plants were then cultivated in a greenhouse at 20-24° C. and 60-80% relative atmospheric humidity for 7 days. The extent of mildew development was then determined visually in % infection of the cotyledon area.

The subject of data set [1] is Botrytis cinerea. Nature of the data set: Protective activity against gray mold on bell-pepper leaves (Use Example 2). In kind it is in vivo. The following applies: 250 ppm spray; bell-pepper seedlings; inoculated the next day; assessed visually after 5 days; untreated 100%. The text has this:
Protective Activity against Gray Mold, Caused by Botrytis cinerea, on Bell-pepper Leaves Bell-pepper seedlings of the cultivar “Neusiedler Ideal Elite” having 4-5 well-developed leaves were sprayed to runoff point with an aqueous suspension having the concentration stated below of active compounds. The active compounds were separately prepared as a stock solution containing 0.25% by weight of active compound in acetone or dimethyl sulfoxide. This solution was admixed with 1% by weight of Emulgator Uniperol® EL (wetting agent based on ethoxylated alkylphenols which has an emulsifying and dispersing effect) and diluted with water to the desired concentration. The next day, the treated plants were inoculated with a spore suspension of Botrytis cinerea, comprising 1.7×10^6 spores/ml in a 2% strength aqueous biomalt solution. The test plants were then placed in a climatized chamber at 22-24° C. in high atmospheric humidity. After 5 days, the extent of the fungal infection on the leaves could be determined visually in %.

In data set [2] the test system is Botrytis cinerea. Nature of the data set: Activity and persistency against gray mold on bell-pepper leaves (Use Example 1). Format: in vivo. The note with it: 63 ppm spray; bell-pepper seedlings; inoculated 7 days after treatment; assessed visually after 5 days; untreated 90%. The procedure:
Activity and Persistency against Gray Mold, Caused by Botrytis cinerea, on Bell-pepper Leaves Bell-pepper seedlings of the cultivar “Neusiedler Ideal Elite” having 4-5 well-developed leaves were sprayed to runoff point with an aqueous suspension having the concentration stated below of active compounds. The suspension or emulsion was prepared from a stock solution containing 10% of active compound in a mixture comprising 85% of cyclohexanone and 5% of emulsifier. The plants were then cultivated for a further 7 days, and the treated plants were then inoculated with a spore suspension of Botrytis cinerea, which comprised 1.7×10^6 spores/ml in a 2% strength aqueous biomalt solution. The test plants were then placed in a climatized chamber at 22-24° C. in high atmospheric humidity. After 5 days, the extent of the fungal infection on the leaves could be determined visually in %, giving not only an indication of the fungicidal action of the substances but also of the persistency.

The compound `O=C(Nc1ccccc1OCC(F)(F)F)c1sccc1C(F)(F)F` [I-14, N-(2-(2,2,2-trifluoroethoxy)phenyl)-3-trifluoromethylthiophene-2-carboxamide] returned a melting point of 125 to 127 °C. Take `O=C(Nc1ccccc1-c1ccccc1)c1sccc1C(F)(F)F` [I-12]: the “Foliar infection [%] at 63 ppm” value with Sphaerotheca fuliginea was 0%. In the case of `Cc1ccccc1-c1ccccc1NC(=O)c1cscc1C(F)(F)F` [III-4], the “Foliar infection [%] at 250 ppm” value in the data set with Botrytis cinerea [1] was found to be 3%.

For `O=C(Nc1ccccc1C1CCCC1)c1sccc1C(F)(F)F` [I-2], the “Foliar infection [%] at 63 ppm” value with Botrytis cinerea [2] is listed as 7%.

Regarding `CC(C)Oc1cccc(NC(=O)c2sccc2C(F)(F)F)c1` [I-8], the “Foliar infection [%] at 63 ppm” value with Botrytis cinerea [2] came to 10%. Regarding `O=C(Nc1ccccc1C1CCCCC1)c1ccsc1C(F)(F)F` [II-3], the figures for the “Foliar infection [%] at 63 ppm” value with Sphaerotheca fuliginea and in the data set with Botrytis cinerea [2] were 3% and 5%, respectively.

As for `O=C(Nc1ccccc1C1CCCCC1)c1sccc1C(F)(F)F` [I-3], the “Foliar infection [%] at 63 ppm” value with Sphaerotheca fuliginea turned out to be 5%; in the data set with Botrytis cinerea [2], 3%.

Regarding `O=C(Nc1ccccc1-c1ccc(F)cc1)c1ccsc1C(F)(F)F` [II-7], the entries for the “Foliar infection [%] at 63 ppm” value in the data set on Sphaerotheca fuliginea and in the data set on Botrytis cinerea [2] were 5% and 1%, respectively. Regarding `O=C(Nc1ccccc1-c1ccc(F)cc1)c1sccc1C(F)(F)F` [I-7], the “Foliar infection [%] at 63 ppm” value is on record as 0% with Sphaerotheca fuliginea and 1% with Botrytis cinerea [2]. For `O=C(Nc1ccccc1C1CCCC1)c1cscc1C(F)(F)F` [III-7], in the data set with Botrytis cinerea [1], the “Foliar infection [%] at 250 ppm” value amounted to 7%. Consider `O=C(Nc1ccccc1-c1ccc(Cl)cc1)c1sccc1C(F)(F)F` [I-6], for which the figures for the “Foliar infection [%] at 63 ppm” value with Sphaerotheca fuliginea and in the data set with Botrytis cinerea [2] were 0% and 1%, respectively. `CC(C)c1ccc(-c2ccccc2NC(=O)c2sccc2C(F)(F)F)cc1` [I-13]: the “Foliar infection [%] at 63 ppm” value in the data set on Sphaerotheca fuliginea was 0%.

Turning to `CCC(C)c1ccccc1NC(=O)c1sccc1C(F)(F)F` (stereo not drawn) [I-1], the “Foliar infection [%] at 63 ppm” value in the data set on Botrytis cinerea [2] stood at 5%. In the case of `O=C(Nc1ccccc1OC(F)(F)C(F)F)c1sccc1C(F)(F)F` [I-5], the “Foliar infection [%] at 63 ppm” value with Sphaerotheca fuliginea was found to be 5%; in the data set on Botrytis cinerea [2] it was 3%. In the case of `CCC(C)c1ccccc1NC(=O)c1cscc1C(F)(F)F` (stereo not drawn) [III-5], in the data set on Botrytis cinerea [1], the “Foliar infection [%] at 250 ppm” value worked out at 3%. Consider `O=C(Nc1cccc(OC2CCCC2)c1)c1sccc1C(F)(F)F` [I-11], for which the “Foliar infection [%] at 63 ppm” value with Botrytis cinerea [2] turned out to be 7%. As to `CC(C)Oc1cccc(NC(=O)c2ccsc2C(F)(F)F)c1` [II-8, N-(3-isopropoxyphenyl)-2-trifluoromethylthiophene-3-carboxamide], in the data set on Botrytis cinerea [2], the “Foliar infection [%] at 63 ppm” value is reported as 5%.

In the case of `O=C(Nc1ccccc1OC(F)(F)C(F)F)c1ccsc1C(F)(F)F` [II-5], in the data set on Botrytis cinerea [2], the “Foliar infection [%] at 63 ppm” value is 3%. As to `CCCCCCOc1cccc(NC(=O)c2ccsc2C(F)(F)F)c1` [II-10], the “Foliar infection [%] at 63 ppm” value in the data set on Botrytis cinerea [2] was 10%. `O=C(Nc1ccccc1C1CCCC1)c1ccsc1C(F)(F)F` [II-2]: the “Foliar infection [%] at 63 ppm” value in the data set on Botrytis cinerea [2] worked out at 10%. Consider `O=C(Nc1ccccc1-c1ccc(Cl)cc1)c1ccsc1C(F)(F)F` [II-6], for which the “Foliar infection [%] at 63 ppm” value with Sphaerotheca fuliginea turned out to be 0%.

For orientation: melting point means the temperature, or range, at which the solid turns liquid.
